# From patent US20250019387A1 (Frontier Medicines Corporation, priority 0001, published 2025)
# Biological target: KRAS G12C and cRAF (Ras-binding domain) interaction (Homo sapiens (Human), UniProt P01116, C118S/C51S/C80L/G12C)
# Experiment: Inhibition of KRAS G12C and cRAF binding (AlphaScreen)
# Details: GMPPNP-loaded KRAS G12C, 19-20 hours incubation with compound; read-out: IC50 (Inhibition of KRAS G12C and cRAF Binding)
# How it was run: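 Compounds (DMSO) preincubated 19-20 h at room temperature, then RBD with streptavidin donor and glutathione acceptor beads added in 25 mM Hepes pH 7.4, 150 mM NaCl, 5 mM MgCl2, 0.01% Triton X-100, 2% DMSO for 60-90 min. Emission 570 nm (excitation 680 nm); IC50 by 4-parameter fit. Counter-screen used biotin-AviTag-GST instead of RBD.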
# Sequence of KRAS G12C and cRAF (Ras-binding domain) interaction (P01116 other isoform, or with tags, fused parts or gaps G12C/C51S/C80L/C118S): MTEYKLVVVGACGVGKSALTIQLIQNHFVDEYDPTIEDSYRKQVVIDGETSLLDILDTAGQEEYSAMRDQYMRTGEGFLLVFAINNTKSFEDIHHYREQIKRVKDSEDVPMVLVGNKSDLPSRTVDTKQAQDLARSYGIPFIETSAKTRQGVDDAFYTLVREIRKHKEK
row,SMILES,IC50 [nM]
1,"CN(c1nc(OC[C@@]23CCCN2C[C@H](F)C3)nc2c(F)c(-c3cccc4cccc(Cl)c34)ncc12)[C@H]1CN(C(=O)/C=C/c2nc(C(C)(C)O)no2)C[C@@H]1F [Example 56, (E)-1-((3S,4S)-3-((7-(8-chloronaphthalen-1-yl)-8-fluoro-2-(((2R,7aS)-2-fluorohexahydro-1H-pyrrolizin-7a-yl)methoxy)pyrido[4,3-d]pyrimidin-4-yl)(methyl)amino)-4-fluoropyrrolidin-1-yl)-3-(3-(2-hydroxypropan-2-yl)-1,2,4-oxadiazol-5-yl)prop-2-en-1-one]",10 to 100
2,"CN(CC1CN(C#N)C1)c1nc(OC[C@@H]2CCCN2C)nc2c1CCN(c1cccc3cccc(Cl)c13)C2 [Example 30, (S)-3-(((7-(8-chloronaphthalen-1-yl)-2-((1-methylpyrrolidin-2-yl)methoxy)-5,6,7,8-tetrahydropyrido[3,4-d]pyrimidin-4-yl)(methyl)amino)methyl)azetidine-1-carbonitrile]",> 500
3,"CN(c1nc(OC[C@@]23CCCN2C[C@H](F)C3)nc2c(F)c(-c3cccc4cccc(Cl)c34)ncc12)[C@@H]1CCN(C(=O)/C=C/[C@H]2CCN2CC2COC2)C1 [Example 224, (E)-1-((R)-3-((7-(8-chloronaphthalen-1-yl)-8-fluoro-2-(((2R,7aS)-2-fluorotetrahydro-1H-pyrrolizin-7a(5H)-yl)methoxy)pyrido[4,3-d]pyrimidin-4-yl)(methyl)amino)pyrrolidin-1-yl)-3-((R)-1-(oxetan-3-ylmethyl)azetidin-2-yl)prop-2-en-1-one]",10 to 100
4,"C=CC(=O)N1C[C@H](N(C)c2nc(OCC34CCCN3CCC4)nc3c(F)c(-c4cccc5cccc(Cl)c45)ncc23)CC1C#N (stereo partly drawn) [Example 118, (4R)-1-acryloyl-4-((7-(8-chloronaphthalen-1-yl)-8-fluoro-2-((hexahydro-1H-pyrrolizin-7a-yl)methoxy)pyrido[4,3-d]pyrimidin-4-yl)(methyl)amino)pyrrolidine-2-carbonitrile]",10 to 100
5,"C=CC(=O)N1CC[C@@H](N(CC2CC2)c2nc(OC[C@@]34CCCN3C[C@H](F)C4)nc3c(F)c(-c4cccc5cccc(Cl)c45)ncc23)C1 [Example 250, 1-((R)-3-((7-(8-chloronaphthalen-1-yl)-8-fluoro-2-(((2R,7aS)-2-fluorohexahydro-1H-pyrrolizin-7a-yl)methoxy)pyrido[4,3-d]pyrimidin-4-yl)(cyclopropylmethyl)amino)pyrrolidin-1-yl)prop-2-en-1-one]",100 to 500
6,"C=CC(=O)C1CN(c2nc(OC[C@@H]3CCCN3C)nc3c2CCN(c2cccc4cccc(Cl)c24)C3)C1 [Example 41, (S)-1-(1-(7-(8-chloronaphthalen-1-yl)-2-((1-methylpyrrolidin-2-yl)methoxy)-5,6,7,8-tetrahydropyrido[3,4-d]pyrimidin-4-yl)azetidin-3-yl)prop-2-en-1-one]",10 to 100
7,"C#Cc1c(F)ccc2cccc(-c3ncc4c(N(C)[C@@H]5CCN(C(=O)/C=C/CN6[C@@H]7CC[C@H]6COC7)C5)nc(OC[C@@]56CCCN5C[C@H](F)C6)nc4c3F)c12 [Example 292, (E)-4-((1R,5S)-3-oxa-8-azabicyclo[3.2.1]octan-8-yl)-1-((R)-3-((7-(8-ethynyl-7-fluoronaphthalen-1-yl)-8-fluoro-2-(((2R,7aS)-2-fluorotetrahydro-1H-pyrrolizin-7a(5H)-yl)methoxy)pyrido[4,3-d]pyrimidin-4-yl)(methyl)amino)pyrrolidin-1-yl)but-2-en-1-one]",< 10
8,"CN(c1nc(OC[C@@]23CCCN2C[C@H](F)C3)nc2c(F)c(-c3cccc4cccc(Cl)c34)ncc12)[C@@H]1CCN(C(=O)/C=C/c2nc(C3(F)CCC3)no2)C1 [Example 208, (E)-1-((R)-3-((7-(8-chloronaphthalen-1-yl)-8-fluoro-2-(((2R,7aS)-2-fluorotetrahydro-1H-pyrrolizin-7a(5H)-yl)methoxy)pyrido[4,3-d]pyrimidin-4-yl)(methyl)amino)pyrrolidin-1-yl)-3-(3-(1-fluorocyclobutyl)-1,2,4-oxadiazol-5-yl)prop-2-en-1-one]",< 10
9,"Cc1nc(C)c(F)c(/C=C/C(=O)N2CC[C@@H](N(C)c3nc(OC[C@@]45CCCN4C[C@H](F)C5)nc4c(F)c(-c5cccc6ccc(F)c(F)c56)ncc34)C2)n1 [Example 294, (E)-1-((R)-3-((7-(7,8-difluoronaphthalen-1-yl)-8-fluoro-2-(((2R,7aS)-2-fluorotetrahydro-1H-pyrrolizin-7a(5H)-yl)methoxy)pyrido[4,3-d]pyrimidin-4-yl)(methyl)amino)pyrrolidin-1-yl)-3-(5-fluoro-2,6-dimethylpyrimidin-4-yl)prop-2-en-1-one]",100 to 500
10,"Cc1nsc(/C=C/C(=O)N2CC[C@@H](N(C)c3nc(OCC45CCCN4CCC5)nc4c(F)c(-c5cccc6cccc(Cl)c56)ncc34)C2)n1 [Example 138, (R,E)-1-(3-((7-(8-chloronaphthalen-1-yl)-8-fluoro-2-((tetrahydro-1H-pyrrolizin-7a(5H)-yl)methoxy)pyrido[4,3-d]pyrimidin-4-yl)(methyl)amino)pyrrolidin-1-yl)-3-(3-methyl-1,2,4-thiadiazol-5-yl)prop-2-en-1-one]",10 to 100
11,"CN1CCCC1/C=C/C(=O)N1CC[C@@H](N(C)c2nc(OC[C@@]34CCCN3C[C@H](F)C4)nc3c(F)c(-c4cccc5ccc(F)c(Cl)c45)ncc23)C1 (stereo partly drawn) [Example 124, (E)-1-((R)-3-((7-(8-chloro-7-fluoronaphthalen-1-yl)-8-fluoro-2-(((2R,7aS)-2-fluorotetrahydro-1H-pyrrolizin-7a(5H)-yl)methoxy)pyrido[4,3-d]pyrimidin-4-yl)(methyl)amino)pyrrolidin-1-yl)-3-(1-methylpyrrolidin-2-yl)prop-2-en-1-one]",10 to 100
12,"Cc1nccc(/C=C/C(=O)N2CC[C@@H](N(C)c3nc(OC[C@@]45CCCN4C[C@H](F)C5)nc4c(F)c(-c5cccc6cccc(Cl)c56)ncc34)C2)n1 [Example 72, (E)-1-((R)-3-((7-(8-chloronaphthalen-1-yl)-8-fluoro-2-(((2R,7aS)-2-fluorotetrahydro-1H-pyrrolizin-7a(5H)-yl)methoxy)pyrido[4,3-d]pyrimidin-4-yl)(methyl)amino)pyrrolidin-1-yl)-3-(2-methylpyrimidin-4-yl)prop-2-en-1-one]",100 to 500
13,"C=CC(=O)N1C[C@H](F)[C@@H](N(C)c2nc(OC[C@@]34CCCN3C[C@H](F)C4)nc3c(F)c(-c4cccc5cccc(Cl)c45)ncc23)C1 [Example 73, 1-((3S,4S)-3-((7-(8-chloronaphthalen-1-yl)-8-fluoro-2-(((2R,7aS)-2-fluorohexahydro-1H-pyrrolizin-7a-yl)methoxy)pyrido[4,3-d]pyrimidin-4-yl)(methyl)amino)-4-fluoropyrrolidin-1-yl)prop-2-en-1-one]",10 to 100
14,"CN(c1nc(OCC23CCCN2CCC3)nc2c(F)c(-c3cccc4cccc(Cl)c34)ncc12)[C@@H]1CCN(C(=O)/C=C/c2cn(C)cn2)C1 [Example 115, (R,E)-1-(3-((7-(8-chloronaphthalen-1-yl)-8-fluoro-2-((hexahydro-1H-pyrrolizin-7a-yl)methoxy)pyrido[4,3-d]pyrimidin-4-yl)(methyl)amino)pyrrolidin-1-yl)-3-(1-methyl-1H-imidazol-4-yl)prop-2-en-1-one]",> 500
15,"CN1CCC[C@H]1COc1nc2c(c(N(C)[C@@H]3CCN(C(=O)/C=C/S(C)(=O)=O)C3)n1)CCN(c1cccc3cccc(Cl)c13)C2 [Example 9, (E)-1-((R)-3-((7-(8-chloronaphthalen-1-yl)-2-(((S)-1-methylpyrrolidin-2-yl)methoxy)-5,6,7,8-tetrahydropyrido[3,4-d]pyrimidin-4-yl)(methyl)amino)pyrrolidin-1-yl)-3-(methylsulfonyl)prop-2-en-1-one]",< 10
16,"Cc1nccc(/C=C/C(=O)N2CC(CN(C)c3nc(OC[C@@]45CCCN4C[C@H](F)C5)nc4c(F)c(-c5cccc6cccc(Cl)c56)ncc34)C2)n1 [Example 62, (E)-1-(3-(((7-(8-chloronaphthalen-1-yl)-8-fluoro-2-(((2R,7aS)-2-fluorotetrahydro-1H-pyrrolizin-7a(5H)-yl)methoxy)pyrido[4,3-d]pyrimidin-4-yl)(methyl)amino)methyl)azetidin-1-yl)-3-(2-methylpyrimidin-4-yl)prop-2-en-1-one]",10 to 100

# Same assay, conditions: additional exemplary compounds; KRAS G12C and cRAF binding; read-out: RAF1 RBD IC50
row,SMILES,IC50 [nM]
1,CN(C)C/C=C/S(=O)(=O)C1CCCN(c2nc(OCC34CCCN3CCC4)nc3c(F)c(-c4cccc5cccc(Cl)c45)ncc23)C1 (centres unmarked),10 to 100
2,C=CC(=O)N1C[C@@H](N(C)c2nc(OC[C@@]34CCCN3C[C@H](F)C4)nc3c2CCN(c2cccc4cccc(Cl)c24)C3)C[C@@H]1CC#N,> 500
3,Cc1nccc(/C=C/C(=O)N2C[C@@H](F)[C@H](N(C)c3nc(OC[C@@]45CCCN4C[C@H](F)C5)nc4c(F)c(-c5cccc6cccc(Cl)c56)ncc34)C2)n1,> 500
4,CN(CC1CN(C#N)C1)c1nc(OCC23CCCN2CCC3)nc2c1CCN(c1cccc3cccc(Cl)c13)C2,100 to 500
5,C=CC(=O)N1CC[C@@H](N(CC)c2nc(OC[C@@]34CCCN3C[C@H](F)C4)nc3c(F)c(-c4cccc5cccc(Cl)c45)ncc23)C1,> 500
6,CN(C)C/C=C/S(=O)(=O)CCN(C)c1nc(OC[C@@H]2CCCN2C)nc2c(F)c(-c3cccc4ccc(F)c(Cl)c34)ncc12,10 to 100
7,C=CC(=O)N1C[C@H]2C[C@@H]1CN2c1nc(OCC23CCCN2CCC3)nc2c1CCN(c1cccc3cccc(Cl)c13)C2,> 500
8,Cc1nsc(/C=C/C(=O)N2C[C@@H](F)[C@H](N(C)c3nc(OC[C@@]45CCCN4C[C@H](F)C5)nc4c(F)c(-c5cccc6cccc(Cl)c56)ncc34)C2)n1,> 500
9,C=CS(=O)(=O)[C@H]1CC[C@@H](N(C)c2nc(OCC34CCCN3CCC4)nc3c2CCN(c2cccc4cccc(Cl)c24)C3)C1,10 to 100
10,CN(c1nc(OC[C@@]23CCCN2C[C@H](F)C3)nc2c1CCN(c1cccc3cccc(Cl)c13)C2)[C@@H]1CCN(C(=O)/C=C/c2ccncn2)C1,> 500
